Assay results taken from patent US20240174624A1, “CHIRAL N-(1,3,4-OXADIAZOLE-2-YL)PHENYL CARBOXYLIC ACID AMIDES AND THEIR USE AS HERBICIDES” (Bayer Aktiengesellschaft, priority 2021, published 2024).

What was measured:
[1] = test system: GLXMA; test: Pre-emergence damage to crop plants; type: in vivo, Glycine max; details: 80 g a.i./ha, comparative experiment
Excerpt: (§1) Seeds of monocotyledonous and dicotyledonous weed plants and crop plants are laid out in sandy loam soil in wood-fibre pots and covered with soil. The compounds of the invention, formulated in the form of wettable powders (WP) or as emulsion concentrates (EC), are then applied to the surface of the covering soil in the form of an aqueous suspension or emulsion at a water application rate equivalent to 600 to 800 l/ha, with addition of 0.2% wetting agent. After the treatment, the pots are placed in a greenhouse and kept under good growth conditions for the trial plants. The damage to the test plants is scored visually after a test period of 3 weeks by comparison with untreated controls (herbicidal activity in percent (%): 100% activity=the plants have died, 0% activity=like control plants). […] The tables below illustrate, in an illustrative manner, the post-emergence herbicidal action of the compounds of the invention, the herbicidal activity being stated in percent. In the experiments that follow, the herbicidal action of the compounds of the invention and that of the corresponding known racemic compounds closest from WO2012126932 and WO2018202535 were compared under the above-specified conditions by the pre-emergence and post-emergence method. The example numbers given in the tables relate to the compounds disclosed in the respective documents.

[2] = test system: TRZAS; test: Pre-emergence damage to crop plants; type: in vivo, Triticum aestiva; details: comparative experiment
Excerpt: as §1

[3] = test system: ORYZA; test: Post-emergence damage to crop plants; type: in vivo, Oryza sativa; details: 5 g a.i./ha, comparative experiment
Description: (§2) Seeds of monocotyledonous and dicotyledonous weed and crop plants are laid out in sandy loam soil in wood-fibre pots, covered with soil and cultivated in a greenhouse under good growth conditions. 2 to 3 weeks after sowing, the test plants are treated at the one-leaf stage. The compounds of the invention, formulated in the form of wettable powders (WP) or as emulsion concentrates (EC), are then sprayed onto the green parts of the plants in the form of an aqueous suspension or emulsion at a water application rate equating to 600 to 800 l/ha, with addition of 0.2% wetting agent. After the test plants have been left to stand in the greenhouse under optimal growth conditions for about 3 weeks, the action of the preparations is assessed visually in comparison to untreated controls (herbicidal action in percent (%): 100% activity=the plants have died, 0% activity=like control plants). […] The tables below illustrate, in an illustrative manner, the post-emergence herbicidal action of the compounds of the invention, the herbicidal activity being stated in percent. In the experiments that follow, the herbicidal action of the compounds of the invention and that of the corresponding known racemic compounds closest from WO2012126932 and WO2018202535 were compared under the above-specified conditions by the pre-emergence and post-emergence method. The example numbers given in the tables relate to the compounds disclosed in the respective documents.

[4] = test system: ZEAMX; test: Pre-emergence damage to crop plants; type: in vivo, Zea mays; details: comparative experiment
Excerpt: as §1

[5] = test system: TRZAS; test: Post-emergence damage to crop plants; type: in vivo, Triticum aestiva; details: comparative experiment
Description: as §2

[6] = test system: BRSNW; test: Pre-emergence damage to crop plants; type: in vivo, Brassica napus; details: 20 g a.i./ha, comparative experiment
Excerpt: as §1

[7] = test system: SETVI; test: Pre-emergence herbicidal action; type: in vivo, Setaria viridis; details: 80 g/ha, scored after 3 weeks
Excerpt: as §1

[8] = test system: ECHCG; test: Post-emergence herbicidal action; type: in vivo, Echinochloa crus-galli; details: for Post-emergence action against ECHCG: assessed after about 3 weeks
Description: as §2

[9] = test system: VIOTR; test: Pre-emergence herbicidal action; type: in vivo, Viola tricolor; details: scored after 3 weeks
Excerpt: as §1, with “percent.” for “percent. In the experiments that follow, the herbicidal action of the compounds of the invention and that of the corresponding known racemic compounds closest from WO2012126932 and WO2018202535 were compared under the above-specified conditions by the pre-emergence and post-emergence method. The example numbers given in the tables relate to the compounds disclosed in the respective documents.”

[10] = test system: SETVI; test: Post-emergence herbicidal action; type: in vivo, Setaria viridis; details: 20 g/ha, assessed after about 3 weeks
Description: as §2

[11] = test system: DIGSA; test: Pre-emergence herbicidal action; type: in vivo, Digitaria sanguinalis; details: scored after 3 weeks
Excerpt: as §1, with “percent.” for “percent. In the experiments that follow, the herbicidal action of the compounds of the invention and that of the corresponding known racemic compounds closest from WO2012126932 and WO2018202535 were compared under the above-specified conditions by the pre-emergence and post-emergence method. The example numbers given in the tables relate to the compounds disclosed in the respective documents.”

[12] = test system: PHBPU; test: Post-emergence herbicidal action; type: in vivo, Pharbitis purpurea; details: assessed after about 3 weeks
Description: as §2, with “percent.” for “percent. In the experiments that follow, the herbicidal action of the compounds of the invention and that of the corresponding known racemic compounds closest from WO2012126932 and WO2018202535 were compared under the above-specified conditions by the pre-emergence and post-emergence method. The example numbers given in the tables relate to the compounds disclosed in the respective documents.”

[13] = test system: MATIN; test: Pre-emergence herbicidal action; type: in vivo, Matricaria inodora; details: 80 g/ha, scored after 3 weeks
Excerpt: as §1

[14] = test system: MATIN; test: Post-emergence herbicidal action; type: in vivo, Matricaria inodora; details: 20 g/ha, assessed after about 3 weeks
Description: as §2, with “percent.” for “percent. In the experiments that follow, the herbicidal action of the compounds of the invention and that of the corresponding known racemic compounds closest from WO2012126932 and WO2018202535 were compared under the above-specified conditions by the pre-emergence and post-emergence method. The example numbers given in the tables relate to the compounds disclosed in the respective documents.”

[15] = test system: AMARE; test: Pre-emergence herbicidal action; type: in vivo, Amaranthus retroflexus; details: scored after 3 weeks
Excerpt: as §1, with “percent.” for “percent. In the experiments that follow, the herbicidal action of the compounds of the invention and that of the corresponding known racemic compounds closest from WO2012126932 and WO2018202535 were compared under the above-specified conditions by the pre-emergence and post-emergence method. The example numbers given in the tables relate to the compounds disclosed in the respective documents.”

[16] = test system: VIOTR; test: Post-emergence herbicidal action; type: in vivo, Viola tricolor; details: 20 g/ha, assessed after about 3 weeks
Description: as §2

[17] = test system: ECHCG; test: Pre-emergence herbicidal action; type: in vivo, Echinochloa crus-galli; details: scored after 3 weeks
Excerpt: as §1, with “percent.” for “percent. In the experiments that follow, the herbicidal action of the compounds of the invention and that of the corresponding known racemic compounds closest from WO2012126932 and WO2018202535 were compared under the above-specified conditions by the pre-emergence and post-emergence method. The example numbers given in the tables relate to the compounds disclosed in the respective documents.”

[18] = test system: DIGSA; test: Post-emergence herbicidal action; type: in vivo, Digitaria sanguinalis; details: assessed after about 3 weeks
Description: as §2

[19] = test system: STEME; test: Post-emergence herbicidal action; type: in vivo, Stellaria media; details: 20 g/ha, assessed after about 3 weeks
Description: as §2

[20] = test system: AMARE; test: Post-emergence herbicidal action; type: in vivo, Amaranthus retroflexus; details: assessed after about 3 weeks
Description: as §2, with “percent.” for “percent. In the experiments that follow, the herbicidal action of the compounds of the invention and that of the corresponding known racemic compounds closest from WO2012126932 and WO2018202535 were compared under the above-specified conditions by the pre-emergence and post-emergence method. The example numbers given in the tables relate to the compounds disclosed in the respective documents.”

[21] = test system: STEME; test: Pre-emergence herbicidal action; type: in vivo, Stellaria media; details: scored after 3 weeks
Excerpt: as §1

SMILES: Cc1c(C(=O)Nc2nnco2)ccc(C(F)(F)F)c1[S+](C)[O-] (racemic) [1-144 from WO2012126932, 2-methyl-N-(1,3,4-oxadiazol-2-yl)-3-[(rac)-methylsulfinyl]-4-(trifluoromethyl)benzamide, reference compound]
- Damage to GLXMA [1]: 80%
- Damage to TRZAS ([2]; 20 g a.i./ha): 50%
- Damage to TRZAS ([2]; 80 g a.i./ha): 90%
- Damage to ORYZA [3]: 60%
- Damage to ZEAMX ([4]; 20 g a.i./ha): 20%
- Damage to ZEAMX ([4]; 80 g a.i./ha): 30%
- Damage to TRZAS ([5]; 5 g a.i./ha): 40%
- Damage to TRZAS ([5]; 20 g a.i./ha): 50%
- Damage to BRSNW [6]: 100%

SMILES: Cc1c(C(=O)Nc2nnco2)ccc(C(F)(F)F)c1[S+](C)[O-] (stereo in doubt) [Example I-3, 2-methyl-N-(1,3,4-oxadiazol-2-yl)-3-[(S)-methylsulfinyl]-4-(trifluoromethyl)benzamide]
- Pre-emergence action against SETVI [7]: 90%
- Post-emergence action against ECHCG ([8]; 5 g/ha): 80%
- Post-emergence action against ECHCG ([8]; 20 g/ha): 90%
- Damage to GLXMA [1]: 50%
- Pre-emergence action against VIOTR ([9]; 20 g/ha): 90%
- Pre-emergence action against VIOTR ([9]; 80 g/ha): 100%
- Post-emergence action against SETVI [10]: 90%
- Pre-emergence action against DIGSA ([11]; 20 g/ha): 100%
- Pre-emergence action against DIGSA ([11]; 80 g/ha): 100%
- Post-emergence action against PHBPU ([12]; 5 g/ha): 80%
- Post-emergence action against PHBPU ([12]; 20 g/ha): 80%
- Pre-emergence action against MATIN [13]: 90%
- Damage to TRZAS ([2]; 20 g a.i./ha): 0%
- Damage to TRZAS ([2]; 80 g a.i./ha): 30%
- Damage to ORYZA [3]: 30%
- Post-emergence action against MATIN [14]: 80%
- Pre-emergence action against AMARE ([15]; 20 g/ha): 100%
- Pre-emergence action against AMARE ([15]; 80 g/ha): 100%
- Post-emergence action against VIOTR [16]: 90%
- Pre-emergence action against ECHCG ([17]; 20 g/ha): 90%
- Pre-emergence action against ECHCG ([17]; 80 g/ha): 100%
- Damage to ZEAMX ([4]; 20 g a.i./ha): 0%
- Damage to ZEAMX ([4]; 80 g a.i./ha): 0%
- Post-emergence action against DIGSA ([18]; 5 g/ha): 90%
- Post-emergence action against DIGSA ([18]; 20 g/ha): 90%
- Post-emergence action against STEME [19]: 80%
- Damage to TRZAS ([5]; 5 g a.i./ha): 20%
- Damage to TRZAS ([5]; 20 g a.i./ha): 30%
- Damage to BRSNW [6]: 70%
- Post-emergence action against AMARE ([20]; 5 g/ha): 90%
- Post-emergence action against AMARE ([20]; 20 g/ha): 90%
- Pre-emergence action against STEME ([21]; 20 g/ha): 80%
- Pre-emergence action against STEME ([21]; 80 g/ha): 100%

SMILES: C[S+]([O-])c1c(C(F)F)ccc(C(=O)Nc2nnco2)c1Cl (racemic) [Racemate, known from WO2018202535, 2-chloro-N-(1,3,4-oxadiazol-2-yl)-3-[(rac)-methylsulfinyl]-4-(difluoromethyl)benzamide, reference compound]
- Herbicidal action against ECHCG ([8]; 5 g a.i./ha, comparative experiment): 70%
- Damage to GLXMA [1]: 80%
- Damage to TRZAS ([2]; 20 g a.i./ha): 70%
- Damage to TRZAS ([2]; 80 g a.i./ha): 100%
- Damage to ORYZA [3]: 60%
